Test [1] is described as follows: DPPH free radical scavenging assay. The settings on record: Table 3, unit not given in the table (μM); read-out: EC50 Antioxidant activity (DPPH•).
Test [2] in a line: ABTS+ free radical scavenging assay. The settings on record: Table 3, unit not given in the table (μM); read-out: EC50 Antiradical activity (ABTS+).
A further test has as its target Electric eel AChE (Electrophorus electricus, UniProt O42275). Kind of test: biochemical. The settings on record: substrate ATCI, pH 8.0, 25 °C, read-out: IC50 acetylcholinesterase inhibition.
The test system of test [3] is Escherichia coli (DSMZ1058). Kind of test: In vitro antibacterial assay, micro-dilution MIC. It counts as cell-based. The settings on record: Escherischia coli, 37 °C, 24 h. (In general: Dilution methods test growth across graded concentrations, often in twofold steps.)
For test [4], the system named is Micrococcus luteus (DSMZ1605). In words: In vitro antibacterial assay, micro-dilution MIC. The test is classed as cell-based. The settings on record: 30 °C, 24 h.
Test [5] has as its system Staphylococcus warneri (DSMZ20036). In words: In vitro antibacterial assay, micro-dilution MIC. It counts as cell-based. The settings on record: 37 °C, 24 h.
The test system of test [6] is Escherichia coli, Micrococcus luteus, Pseudomonas agarici and Staphylococcus warneri. In words: In vitro antibacterial assay, MIC over all the tested bacterial strains. It counts as cell-based. The settings on record: range over four bacterial strains; read-out: MIC ranging over all the tested bacterial strains.
In test [7] the test system is Pseudomonas agarici (DSMZ11810). In words: In vitro antibacterial assay, micro-dilution MIC. The settings on record: 30 °C, 24 h. It counts as cell-based.
A further test relates to p53-HDM2 interaction. Details: method as in PMID 16246554. The settings on record: cited from earlier work.
The subject of the next test is mucosal-type mast cells. The settings on record: cited from earlier work.
Test [8] relates to Trypanosoma cruzi trypomastigotes. On the set-up: method as in PMID 28572816. The settings on record: cited from earlier work.

Consider 6 compounds from paper PMC6597039, “Bioactive secondary metabolites from new endophytic fungus Curvularia. sp isolated from Rauwolfia macrophylla” (PLoS ONE, 2019).

≈ marks a conversion by molar mass, not a printed value.

Broadly, the EC50 is the midpoint of the concentration-response curve. By IC50 is commonly meant the midpoint of a concentration-inhibition curve. The term MIC denotes the smallest concentration in the dilution series that meets the test's criterion for growth inhibition.

Electric eel AChE, sequence (O42275 24-633): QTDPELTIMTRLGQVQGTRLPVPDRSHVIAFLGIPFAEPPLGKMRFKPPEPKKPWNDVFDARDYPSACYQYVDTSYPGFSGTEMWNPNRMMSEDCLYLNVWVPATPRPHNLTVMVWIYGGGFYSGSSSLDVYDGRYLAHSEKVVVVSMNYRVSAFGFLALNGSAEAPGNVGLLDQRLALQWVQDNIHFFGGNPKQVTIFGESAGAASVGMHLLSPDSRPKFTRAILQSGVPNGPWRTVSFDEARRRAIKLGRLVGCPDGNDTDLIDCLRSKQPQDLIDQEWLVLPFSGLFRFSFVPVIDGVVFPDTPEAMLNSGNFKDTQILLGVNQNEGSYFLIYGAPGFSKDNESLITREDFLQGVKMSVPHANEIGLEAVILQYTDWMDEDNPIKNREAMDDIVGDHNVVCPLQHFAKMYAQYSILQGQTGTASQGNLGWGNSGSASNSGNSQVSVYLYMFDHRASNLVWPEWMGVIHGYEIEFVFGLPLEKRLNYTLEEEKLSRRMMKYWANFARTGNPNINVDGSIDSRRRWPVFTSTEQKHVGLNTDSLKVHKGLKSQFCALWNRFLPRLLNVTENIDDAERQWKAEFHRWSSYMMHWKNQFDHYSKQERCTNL

Regarding `COc1ccc(O)c(C(C)(C)C)c1` [BHA, butylated hydroxyanisole, reference compound], the half-maximal effective concentration (EC50) was determined as 0.13 µM in test [1] and 0.01 µM in [2].
For `Cc1cc(C(C)(C)C)c(O)c(C(C)(C)C)c1` [BHT, butylated hydroxytoluene, reference compound], the EC50 in [1] was 0.46 µM; in test [2], 0.06 µM.
With `O=C1CC(O)C(CO)O1` (stereo not drawn) [Compound 1, 2'-deoxyribolactone], the EC50 in test [1] amounted to 0.66 ± 0.02 µM; in [2] it was 0.49 ± 0.02 µM. Also, the concentration for half-maximal inhibition (IC50) on Electric eel AChE is 1.93 µM. Also, the minimal inhibitory concentration (MIC) in test [3] was 0.3 µg/mL (≈ 2.27 µM); in test [4] it was 0.32 µg/mL (≈ 2.42 µM); in [5], 0.17 µg/mL (≈ 1.29 µM); in [6] it was 0.17 to 0.58 µg/mL (≈ 1.29 to 4.39 µM); in test [7], 0.19 µg/mL (≈ 1.44 µM).
For the compound `C=C(C(=O)O)C(CCCCCC)C(=O)O` (stereo not drawn) [Compound 2, hexylitaconic acid], the results for the EC50 in [1] and in test [2] were 0.56 ± 0.02 µM and 0.88 ± 0.02 µM, respectively. In addition, the 50% inhibitory concentration (IC50) at Electric eel AChE came out at 1.54 µM. Besides, the MIC is 0.58 µg/mL (≈ 2.71 µM) in [3]; 0.29 µg/mL (≈ 1.35 µM) in test [4]; 0.58 µg/mL (≈ 2.71 µM) in [5]; 0.17 to 0.58 µg/mL (≈ 0.793 to 2.71 µM) in test [6]; 0.29 µg/mL (≈ 1.35 µM) in test [7]. The “inhibition of p53-HDM2 interaction” value in the test with p53-HDM2 interaction is given as “inhibitor”.
In the case of `CC(C)[C@@H](C)/C=C/[C@@H](C)[C@H]1CC[C@H]2C3=CC=C4C[C@@H](O)CC[C@]4(C)[C@H]3CC[C@]12C` [Compound 3, ergosterol], the “effect on the activity of mucosal-type mast cells” value in the test on mucosal-type mast cells was “inhibitory effect”. Moreover, the EC50 in test [1] came to 1.09 ± 0.02 µM; in test [2], 0.83 ± 0.02 µM. Moreover, the IC50 at Electric eel AChE worked out at 1.52 µM. Moreover, in test [8], the “IC50 anti-Trypanosoma cruzi activity against trypomastigotes” value was 51.3 µg/mL (≈ 129 µM).
On to `CNC(C)C1CCC(N)C(OC2C(N)CC(N)C(OC3OCC(C)(O)C(NC)C3O)C2O)O1` (stereo not drawn) [Gentamicin, reference compound], for which the minimal inhibitory concentration (MIC) in test [3], in test [4], in test [5] and in test [7] was 0.01 µg/mL (≈ 0.0209 µM) throughout.
